Experimental findings from EP4201929A1, “QUINOXALINE THIOREDOXIN REDUCTASE INHIBITORS” (geneXplain GmbH, priority 2021, dated 2023) are described below.

Structures are written as SMILES.

Assay [1] deals with HCT116 cells. The experiment in a line: Growth suppression in the presence of antioxidant NAC. The assay is classed as cell-based. The settings on record: HCT116, 5 mM NAC pre-treatment 16h; 2.5, 5 and 10 µM; 24h after treatment. The method, then: (§1) Cells were grown in 96-well plates at a density of 3000 cells per well with or without doxycycline and treated with compounds. After 48 hours of incubation the proliferative cell reagent resazurin (Thermo Fisher Scientific) was added to the cells. The degree of resazurin reduction, which reflects cell viability, was measured by microplate reader by monitoring the absorbance at 570 nm and 600 nm, according to the manufacturer.
To find out whether oxidative stress plays a role in cancer cell death induced by 1d*HCl, we tested the extent of growth suppression by the treatment in the presence of antioxidant N-acetyl cysteine (NAC), which neutralize ROS. We pre-treated HCT116 cells with 5 mM NAC. After 16h of incubation with NAC, we treated HCT116 cells with 2.5, 5, and 10 µM of 1d*HCl. We measured the growth suppression 24h after treatment. […] Thus, we conclude that the mechanism of cancer cell growth suppression is dependent on the induction of oxidative stress by the compounds of the present invention.

Assay [2] deals with HCT116 p53-/- and A375p53-/- cells. Kind of assay: Growth suppression in wild type p53 versus p53-negative isogenic cells. Type of assay: cell-based. The conditions noted are these: HCT116 vs HCT116 p53-/-; A375 vs A375p53-/-. Here is the method:
as §1
Since p53 is a major inducer of apoptosis, including ROS-induced apoptosis, we tested whether p53 plays a role in growth suppression by 1d*HCl. We used wild type p53 HCT116 cells and their isogenic p53-negative cell line HCT116 p53-/-, as well as a pair of wild type p53 A375 and p53-negative A375p53-/- melanoma cells, generated using CRISPR-Cas9, as described previously [Zhou X, Singh M, Sanz Santos G, Guerlavais V, Carvajal LA, Aivado M, Zhan Y, Oliveira MMS, Westerberg LS, Annis DA, Johnsen JI, Selivanova G. Pharmacologic activation of p53 triggers viral mimicry response thereby abolishing tumor immune evasion and promoting anti-tumor immunity Cancer Discov. ([…]), 11(12), 3090-3105]. […] This allowed us to conclude that the tumor suppression is p53 -independent. […]

Assay [3] concerns the target T1, recombinant purified TrxRl (Homo sapiens, UniProt Q16881).
T1 construct: made in house; host or cells: Release Factor 1-depleted E. coli strain
Kind of assay: TrxR1 enzymatic activity measurement in vitro. The assay is classed as biochemical. The conditions noted are these: recombinant purified enzyme in vitro. The method, then:
TrxRl enzyme was recombinantly produced with high Sec contents in a specific Release Factor 1-depleted E. coli strain and purified as previously described (Arnér ESJ, Holmgren A, in Current Protocols in Toxicology, Maines M, Costa L, Reed D, Sassa S, Eds. (John Wiley & Sons, Inc., New York, 2000), pp. 7.4.1-7.4.14). TrxRl and GSR (Sigma) recombinant enzyme assays were performed in a reaction buffer containing 50 mM Tris pH 7.5 with 2 mM EDTA and 0.1 mg/mL bovine serum albumin as described previously (Arnér ESJ, Holmgren A, in Current Protocols in Toxicology, Maines M, Costa L, Reed D, Sassa S, Eds. (John Wiley & Sons, Inc., New York, 2000), pp. 7.4.1-7.4.14). Briefly, assays were performed in triplicate using 96-well plates, with activity inferred from absorbance changes using a Spectra Max plate reader. Results of recombinant enzyme assays were normalized to DMSO and to no enzyme controls.
We used recombinant purified TrxRl and GR in an in vitro assay as described in methods section.

Assay [4] has as its target T2, TrxRl covalent dimers (Homo sapiens, UniProt Q16881).
T2 construct: endogenous in cells; host or cells: MCF7 (A37, A39); HCT116 (A39)
The experiment in a line: Detection of TrxR dimers by Western blot. Type of assay: cell-based. The conditions noted are these: HCT116 and MCF7 cells, 5 µM, detected as soon as 2h after treatment. Here is the method:
The extraction of total cell lysates and western blot were performed according to standard procedure. The antibodies used for immunoblotting were: p53 (sc-126, Santa Cruz Biotechnology), γH2AX (#07-164, Millipore), TrxRl 19A1 (AbFrontier). Anti-β-actin monoclonal antibody (Millipore) was used as loading control. The horseradish peroxidase-coupled secondary antibodies (Jackson ImmunoResearch) and SuperSignal™ West Dura Extended Duration Substrate detection system (Thermo Fischer Scientific), and images were visualized using ChemiDoc Imaging System (Bio-Rad).
MCF7 or HCT116 cells were treated in culture with 5 or 10 µM of 1d*HCl (Example 4) in complete medium for 2h or 6h. For each case, duplicate drug treated samples were produced plus duplicate control treatment samples using equal volumes of the drug vehicle dimethyl sulfoxide. Detached cells from each biological replicate were washed, suspended in PBS containing protease inhibitors and cells lysed through freeze thaw cycles in liquid N2, according to the reference protocol. Soluble fraction was separated from precipitated protein by ultracentrifugation at 100000 g for 30 minutes at 4°C and TrxRl dimer formation was analysed using Western blot as described above. […]

For assay [5], the system named is cancer cells. The experiment in a line: Cell growth assay in combination with BSO. Type of assay: cell-based. Here is the method: Further, we tested whether the inhibition of GR by BSO will have additive effect with 1d*HCl. If 1d*HCl mechanism of action includes inhibition of GR, BSO will not have an additive effect. We used a range of concentrations of 1d*HCl and BSO in cell growth assays.
Next, we tested whether the prevention of oxidative stress by NAC will affect the growth suppression by the combination of 1d*HCl and BSO. In the presence of NAC we observed the additive effect of 1d*HCl with 50 µM BSO only at twice higher dose of 1d*HCl - 10 µM.

T1 sequence (Q16881 151-649): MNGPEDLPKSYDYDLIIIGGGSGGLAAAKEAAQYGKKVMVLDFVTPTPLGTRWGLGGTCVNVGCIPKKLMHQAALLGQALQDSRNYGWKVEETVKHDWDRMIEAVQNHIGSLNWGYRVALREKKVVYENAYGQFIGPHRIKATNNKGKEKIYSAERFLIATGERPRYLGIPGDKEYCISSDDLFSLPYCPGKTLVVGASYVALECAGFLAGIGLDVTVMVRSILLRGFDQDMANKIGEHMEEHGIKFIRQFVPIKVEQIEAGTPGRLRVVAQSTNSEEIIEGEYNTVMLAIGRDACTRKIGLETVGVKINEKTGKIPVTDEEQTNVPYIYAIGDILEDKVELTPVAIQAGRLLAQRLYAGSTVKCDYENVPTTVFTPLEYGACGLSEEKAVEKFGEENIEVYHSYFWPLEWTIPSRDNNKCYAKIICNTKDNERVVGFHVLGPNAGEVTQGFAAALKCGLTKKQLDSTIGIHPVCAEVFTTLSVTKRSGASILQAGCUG
T2 sequence (Q16881 151-649): as above

Turning to `Cl.N#Cc1c(-c2cccnc2)[n+]([O-])c2cc(F)c(N3CCOCC3)cc2[n+]1[O-]` [1d*HCl, 6-Fluoro-7-(morpholin-4-yl)-3-(pyridin-3-yl)quinoxaline-2-carbonitrile-1,4-dioxide hydrochloride], the “growth suppression in the presence of NAC” value in assay [1] was “almost completely abolished the growth suppression”. The “growth suppression in the absence of p53” value in assay [2] is “not affected in the absence of p53”. Besides, the “enzymatic activity of TrxRl” value in assay [3] was “efficiently inhibited the enzymatic activity of TrxRl in a dose- and time-dependent manner”. Further, in assay [4], the “formation of TrxRl covalent dimers (130 kDa band)” value was “induces the formation of TrxRl covalent dimers”. Further, in assay [5] (5 µM 1d*HCl with 50 µM BSO), the “effect of combination with BSO on cell growth” value is “have an additive effect and completely eradicated cancer cells”. Besides, the “dose of 1d*HCl at which additive effect with 50 µM BSO is observed” value in assay [5] (in the presence of NAC) is 10 µM.
